Experimental data as given in patent US8211907B2, “Fused indane compound” (priority 2007, dated 2012).
Structures can show the parent of a compound that is named as a salt. Where two headings read alike, the source gives them in different places.

Legend:
male ddy mouse = assay: MES (maximal electroshock seizure) inhibitory action; assay type: in vivo; conditions: for ED50: oral administration, electroshock 30 minutes later
Procedure: A test compound was orally administered to a male ddy mouse, an inhibitory action on the seizures caused by an electroshock applied at 30 minutes later (Interval 10 ms, Duration 0.9 ms, Amplitude 50 mA, Gate 0.2 s) was evaluated, and an NMDA receptor inhibitory action in vivo was measured (Palmer G C, Harris E W, Ray R, Stagnitto M L, Schmiesing R J. Arch Int Pharmacodyn Ther. 1992 May-June; 317: 16-34).

NMDA receptor [1] = target: NMDA receptor
NMDA receptor [2] = test system: T1, NMDA receptor; assay: Intracellular calcium concentration determination by FLIPR in rat first-generation neurocytes (NMDA/glycine stimulation); assay type: cell-based; conditions: rat first-generation neurocytes (DIV7-9), NMDA/glycine-induced calcium rise, 10 μM MK-801 = 100% inhibition
T1 construct: IC50
Procedure: 1) Preparation of Rat First-Generation Neurocytes
Anesthetized with ether, Wistar rats (Nippon SLC) at the 19th day of pregnancy were let die from blood loss by breast incision. The abdomen was cut open, and the womb was extracted, and the fetus was removed. The whole brain was removed, the hemicerebrum was then isolated in Neurobasal medium (Glu, Asp-free; Gibco), and the meninx was removed. The hemicerebrum was recovered by centrifugation, and suspended in a cell-dispersing solution (0.36 mg/ml papain, 150 U/ml DNase 1, 0.02% L-cysteine monohydrochloride monohydrate, 0.02% bovine serum albumin, 0.5% glucose, Ca^2+, Mg^2+-free PBS), and treated at 37° C. for 15 minutes. This was centrifuged at 400 g for 5 minutes, and the supernatant was removed by suction. This was suspended in a neurocyte culture medium (Sumitomo Bakelite), and the cell masses were removed using a filter. The number of the living cells was counted, and 100,000 cells/well were incubated on a 96-well plate (Biocoat PDL96W black/clear (Nippon Becton Dickinson)) (37° C., 5% CO2).
2) Intracellular Calcium Concentration Determination by FLIPR (Fluorometric Imaging Plate Reader)
The culture medium of rat first-generation neurocytes (DIV7-9) was removed by suction, and the cells were washed once with a 100 μl assay buffer (Hank's Balanced Salt Solution (Ca^2+, Mg^2+-free), 20 mM Hepes-NaOH (pH 7.4), 1 mM CaCl2). 100 μl of the assay buffer containing Fluo3 (Dojin Chemical) was added thereto, and incubated for 1 hour (37° C., 5% CO2). The cells were washed three times with 100 μl of the assay buffer, and then a compound solution dissolved in 1 μl of dimethylsulfoxide, and 100 μl of the assay buffer containing 2.5 μM (final concentration) tetrodotoxin were added thereto and incubated for 30 minutes (37° C., 5% CO2). The fluorescent intensity was measured at intervals of two seconds, and ten seconds after the measurement start, 50 μl of a ligand solution (Hank's Balanced Salt Solution (Ca^2+, Mg^2+-free), 20 mM Hepes-NaOH (pH 7.4), 1 mM CaCl2, 9 μM NMDA, 30 μM glycine) containing the compound solution dissolved in 0.5 μl of dimethylsulfoxide was added thereto, and the fluorescent intensity was measured for 120 seconds from the start of the measurement. The data measured for total of 120 seconds (60 times in total) were averaged.

NMDA receptor [3] = assay: [3H] MK-801 binding test on rat brain membrane specimen
[4] = Mus musculus, po, 0.5 h, read-out: ED50

Row | Compound | ED50 (male ddy mouse; [4]) [mg/kg] | Ki (NMDA receptor [1]) [µM] | Ki (NMDA receptor [3]) [µM] | also measured
1 | c1ccc2c(c1)C[C@H]1CCCN[C@@H]21 (racemic) [Compound A, (4aRS,9bRS)-2,3,4,4a,5,9b-hexahydro-1H-indeno[1,2-b]pyridine, reference compound] | > 80 | 38 | – | anti-seizure action (male ddy mouse; at 80 mg/kg, oral): did not exhibit an anti-seizure action
2 | c1ccc([C@@H]2c3ccccc3[C@@H]3NCCC[C@H]23)cc1 (racemic) [Compound B, (4aRS,5RS,9bRS)-5-phenyl-2,3,4,4a,5,9b-hexahydro-1H-indeno[1,2-b]pyridine, reference compound] | – | 23 | – | –
3 | c1ccc([C@@H]2c3ccccc3[C@@H]3NCCC[C@H]23)cc1 (racemic) [Compound C, reference compound] | – | 20 | – | –
4 | CC[C@]12CCCN[C@H]1c1ccccc1C2 (racemic) [Example 1, (4aRS,9bRS)-4a-ethyl-2,3,4,4a,5,9b-hexahydro-1H-indeno[1,2-b]pyridine hydrochloride] | 6.8 | – | 0.9 | IC50 (NMDA receptor [2]; read-out: IC50): 5.1 µM
5 | C[C@@]12CCCN[C@@H]1c1ccccc1S2 (racemic) [Example 13, (4aRS,9bRS)-4a-methyl-1,2,3,4,4a,9b-hexahydro[1]benzothieno[3,2-b]pyridine hydrochloride] | 14 | – | 2 | –
6 | C[C@]12CCCN[C@H]1c1ccccc1C2 (racemic) [Example 22, (4aRS,9bRS)-4a-methyl-2,3,4,4a,5,9b-hexahydro-1H-indeno[1,2-b]pyridine hydrochloride] | 11 | – | 5.1 | IC50 (NMDA receptor [2]; read-out: IC50): 34 µM
7 | C[C@]12CCCCN[C@H]1c1ccccc1C2 (racemic) [Example 38-1, (5aRS,10bRS)-5a-methyl-1,2,3,4,5,5a,6,10b-octahydroindeno[1,2-b]azepine hydrochloride] | – | – | 0.5 | –
8 | C[C@]12CCCCN[C@@H]1c1ccccc1C2 (racemic) [Example 38-2, (5aRS,10bSR)-5a-methyl-1,2,3,4,5,5a,6,10b-octahydroindeno[1,2-b]azepine hydrochloride] | – | – | 6.3 | –
9 | CN1CCC[C@]2(C)Cc3ccccc3[C@H]12 (racemic) [Example 42, (4aRS,9bRS)-1,4a-dimethyl-2,3,4,4a,5,9b-hexahydro-1H-indeno[1,2-b]pyridine methanesulfonate] | 31 | 1.3 | – | –
10 | C[C@]12CCCN[C@@]1(C)c1ccccc1C2 (racemic) [Example 63, (4aRS,9bRS)-4a,9b-dimethyl-2,3,4,4a,5,9b-hexahydro-1H-indeno[1,2-b]pyridine hydrochloride] | 5.8 | – | 0.8 | IC50 (NMDA receptor [2]; read-out: IC50): 3 µM
11 | CC[C@]12CCCN[C@H]1c1cc(COC)ccc1C2 (racemic) [Example 73, (4aRS,9bRS)-4a-ethyl-8-(methoxymethyl)-2,3,4,4a,5,9b-hexahydro-1H-indeno[1,2-b]pyridine hydrochloride] | – | – | 7.1 | –
12 | CC[C@]12CCCN[C@H]1c1ccccc1C2 (single isomer, unassigned) [Example 83-1, (4aR*,9bR*)-4a-ethyl-2,3,4,4a,5,9b-hexahydro-1H-indeno[1,2-b]pyridine hydrochloride] | 6.2 | – | – | IC50 (NMDA receptor [2]; hydrochloride, read-out: IC50): 3.1 µM; Ki (NMDA receptor [3]; hydrochloride): 0.6 µM
13 | CC[C@]12CCCN[C@H]1c1ccccc1C2 (single isomer, unassigned) [Example 83-2, (4aR*,9bR*)-4a-ethyl-2,3,4,4a,5,9b-hexahydro-1H-indeno[1,2-b]pyridine hydrochloride] | – | – | – | IC50 (NMDA receptor [2]; hydrochloride, read-out: IC50): 12 µM; Ki (NMDA receptor [3]; hydrochloride): 2.7 µM
14 | C[C@]12CCCN[C@@]1(C)c1ccccc1C2 (single isomer, unassigned) [Example 84-1, (4aR*,9bR*)-4a,9b-dimethyl-2,3,4,4a,5,9b-hexahydro-1H-indeno[1,2-b]pyridine hydrochloride] | – | – | – | IC50 (NMDA receptor [2]; hydrochloride, read-out: IC50): 1.8 µM; ED50 (male ddy mouse; hydrochloride): 4.2 mg/kg, po; Ki (NMDA receptor [3]; hydrochloride): 0.5 µM
15 | C[C@]12CCCN[C@@]1(C)c1ccccc1C2 (single isomer, unassigned) [Example 84-2, (4aR*,9bR*)-4a,9b-dimethyl-2,3,4,4a,5,9b-hexahydro-1H-indeno[1,2-b]pyridine hydrochloride] | – | – | – | IC50 (NMDA receptor [2]; hydrochloride, read-out: IC50): 6.1 µM; ED50 (male ddy mouse; hydrochloride): 28 mg/kg, po; Ki (NMDA receptor [3]; hydrochloride): 1.1 µM
16 | c1ccc([C@]23CCCN[C@H]2c2ccccc2C3)cc1 [Example 3] | 39 | – | 1.2 | IC50 (NMDA receptor [2]): 6.8 µM
17 | Cc1cc2c(s1)C[C@]1(C)CCCN[C@H]21 [Example 15] | 38 | 8.5 | – | –
18 | C[C@@]12CCCN[C@@H]1c1ccccc1CC2 [Example 17] | 4.2 | 2 | – | –
19 | CC(C)[C@]12CCCN[C@@H]1c1ccccc1C2 [Example 32] | 26 | 6.8 | – | –
20 | COc1ccc2c(c1)[C@H]1N(C)CCC[C@@]1(C)C2 [Example 56] | – | – | 1.5 | –
21 | COC[C@]12CCCN[C@@]1(C)c1ccccc1C2 [Example 68] | 26 | 0.6 | – | –
22 | CCOC[C@]12CCCN[C@@]1(C)c1ccccc1C2 [Example 69] | – | – | 1.3 | –
23 | CC[C@]12CCCN[C@H]1c1cc(CO)ccc1C2 [Example 77] | – | – | 4 | –
24 | C[C@]12CCCN[C@H]1c1ccccc1C2 [Example 81, (4aR,9bR)-4a-methyl-2,3,4,4a,5,9b-hexahydro-1H-indeno[1,2-b]pyridine hydrochloride] | 9.1 | – | 2 | IC50 (NMDA receptor [2]; read-out: IC50): 21 µM
25 | C[C@@]12CCCN[C@@H]1c1ccccc1C2 [Example 82, (4aS,9bS)-4-a-methyl-2,3,4,4a,5,9b-hexahydro-1H-indeno[1,2-b]pyridine hydrochloride] | 19 | 6.7 | – | IC50 (NMDA receptor [2]; read-out: IC50): 94 µM
